# Measurements from patent publication US9340590B2 (priority 2011, dated 2016).
# Like-named read-outs stand apart in the source and are kept apart here. Positions of bridges follow the written chain, without caps; N, C: chain ends. Non-standard residues stand in square brackets, D forms with d. Residues, ends and D or L forms follow the SMILES beside them. hPhe = N[C@@H](CCc1ccccc1)C(=O)O
# Experiments:
# Test in all cases: cell-based
# hNav1.7 = hNav1.7 (Homo sapiens, UniProt Q15858); type: cell-based; conditions: IonWorks Quattro, read-out: IWQ Use Nav1.7
# Chain of hNav1.7 (Q15858 whole entry, looked up): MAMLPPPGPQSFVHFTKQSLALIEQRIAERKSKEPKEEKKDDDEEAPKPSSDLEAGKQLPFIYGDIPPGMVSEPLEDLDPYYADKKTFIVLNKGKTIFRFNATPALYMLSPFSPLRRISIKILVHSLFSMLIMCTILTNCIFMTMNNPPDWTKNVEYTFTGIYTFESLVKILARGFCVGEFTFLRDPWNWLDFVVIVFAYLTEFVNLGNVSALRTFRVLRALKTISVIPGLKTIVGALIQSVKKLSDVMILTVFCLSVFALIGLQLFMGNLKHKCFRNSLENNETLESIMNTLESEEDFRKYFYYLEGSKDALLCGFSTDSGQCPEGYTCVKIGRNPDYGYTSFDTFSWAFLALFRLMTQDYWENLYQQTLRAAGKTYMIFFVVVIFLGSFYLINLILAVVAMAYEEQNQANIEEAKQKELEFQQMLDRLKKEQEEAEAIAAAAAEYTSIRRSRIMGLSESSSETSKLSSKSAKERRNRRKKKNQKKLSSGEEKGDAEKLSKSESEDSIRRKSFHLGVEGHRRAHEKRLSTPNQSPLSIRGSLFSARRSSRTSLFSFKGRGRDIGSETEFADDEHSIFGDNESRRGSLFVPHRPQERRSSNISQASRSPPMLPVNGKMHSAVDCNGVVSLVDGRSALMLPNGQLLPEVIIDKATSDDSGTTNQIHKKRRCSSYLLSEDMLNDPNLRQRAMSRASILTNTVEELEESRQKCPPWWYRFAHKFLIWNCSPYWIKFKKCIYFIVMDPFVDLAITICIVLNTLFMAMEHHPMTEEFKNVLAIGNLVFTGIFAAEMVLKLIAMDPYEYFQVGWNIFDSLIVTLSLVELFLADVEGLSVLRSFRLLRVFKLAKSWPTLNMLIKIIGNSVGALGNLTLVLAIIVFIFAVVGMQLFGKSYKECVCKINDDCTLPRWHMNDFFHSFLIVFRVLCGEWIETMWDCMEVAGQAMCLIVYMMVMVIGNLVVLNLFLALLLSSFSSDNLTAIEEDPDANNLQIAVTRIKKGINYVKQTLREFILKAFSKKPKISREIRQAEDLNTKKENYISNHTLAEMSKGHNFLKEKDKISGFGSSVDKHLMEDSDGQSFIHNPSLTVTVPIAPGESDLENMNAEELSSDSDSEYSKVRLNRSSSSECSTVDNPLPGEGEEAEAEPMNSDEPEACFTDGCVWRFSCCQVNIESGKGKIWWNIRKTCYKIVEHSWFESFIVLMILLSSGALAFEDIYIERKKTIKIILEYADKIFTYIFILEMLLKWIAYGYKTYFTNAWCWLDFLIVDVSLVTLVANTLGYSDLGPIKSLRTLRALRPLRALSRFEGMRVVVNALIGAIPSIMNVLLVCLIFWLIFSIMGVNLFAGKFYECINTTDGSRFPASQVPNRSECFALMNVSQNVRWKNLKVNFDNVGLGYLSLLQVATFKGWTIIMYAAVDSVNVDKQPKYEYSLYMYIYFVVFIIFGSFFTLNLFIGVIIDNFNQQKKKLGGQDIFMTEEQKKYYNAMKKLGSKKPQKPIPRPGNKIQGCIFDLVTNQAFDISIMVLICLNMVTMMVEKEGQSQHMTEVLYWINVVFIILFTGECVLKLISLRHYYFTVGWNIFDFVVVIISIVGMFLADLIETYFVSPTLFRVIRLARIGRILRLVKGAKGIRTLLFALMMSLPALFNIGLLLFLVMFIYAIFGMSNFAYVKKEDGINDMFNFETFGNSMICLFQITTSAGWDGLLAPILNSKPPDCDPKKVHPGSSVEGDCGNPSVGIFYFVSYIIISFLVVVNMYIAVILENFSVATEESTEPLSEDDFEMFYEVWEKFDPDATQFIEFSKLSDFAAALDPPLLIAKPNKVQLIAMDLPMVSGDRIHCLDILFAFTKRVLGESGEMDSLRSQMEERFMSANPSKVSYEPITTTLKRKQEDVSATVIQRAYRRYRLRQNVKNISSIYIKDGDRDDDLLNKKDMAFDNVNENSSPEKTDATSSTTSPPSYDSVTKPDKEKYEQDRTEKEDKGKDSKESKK
# hNav1.3 = hNav1.3 (Homo sapiens, UniProt Q9NY46); conditions: IonWorks Quattro, read-out: IWQ Use Nav1.3
# hNav1.5 = hNav1.5 (Homo sapiens, UniProt Q14524); conditions: IonWorks Quattro, read-out: IWQ Use Nav1.5
# Chain of hNav1.5 (Q14524 whole entry, looked up): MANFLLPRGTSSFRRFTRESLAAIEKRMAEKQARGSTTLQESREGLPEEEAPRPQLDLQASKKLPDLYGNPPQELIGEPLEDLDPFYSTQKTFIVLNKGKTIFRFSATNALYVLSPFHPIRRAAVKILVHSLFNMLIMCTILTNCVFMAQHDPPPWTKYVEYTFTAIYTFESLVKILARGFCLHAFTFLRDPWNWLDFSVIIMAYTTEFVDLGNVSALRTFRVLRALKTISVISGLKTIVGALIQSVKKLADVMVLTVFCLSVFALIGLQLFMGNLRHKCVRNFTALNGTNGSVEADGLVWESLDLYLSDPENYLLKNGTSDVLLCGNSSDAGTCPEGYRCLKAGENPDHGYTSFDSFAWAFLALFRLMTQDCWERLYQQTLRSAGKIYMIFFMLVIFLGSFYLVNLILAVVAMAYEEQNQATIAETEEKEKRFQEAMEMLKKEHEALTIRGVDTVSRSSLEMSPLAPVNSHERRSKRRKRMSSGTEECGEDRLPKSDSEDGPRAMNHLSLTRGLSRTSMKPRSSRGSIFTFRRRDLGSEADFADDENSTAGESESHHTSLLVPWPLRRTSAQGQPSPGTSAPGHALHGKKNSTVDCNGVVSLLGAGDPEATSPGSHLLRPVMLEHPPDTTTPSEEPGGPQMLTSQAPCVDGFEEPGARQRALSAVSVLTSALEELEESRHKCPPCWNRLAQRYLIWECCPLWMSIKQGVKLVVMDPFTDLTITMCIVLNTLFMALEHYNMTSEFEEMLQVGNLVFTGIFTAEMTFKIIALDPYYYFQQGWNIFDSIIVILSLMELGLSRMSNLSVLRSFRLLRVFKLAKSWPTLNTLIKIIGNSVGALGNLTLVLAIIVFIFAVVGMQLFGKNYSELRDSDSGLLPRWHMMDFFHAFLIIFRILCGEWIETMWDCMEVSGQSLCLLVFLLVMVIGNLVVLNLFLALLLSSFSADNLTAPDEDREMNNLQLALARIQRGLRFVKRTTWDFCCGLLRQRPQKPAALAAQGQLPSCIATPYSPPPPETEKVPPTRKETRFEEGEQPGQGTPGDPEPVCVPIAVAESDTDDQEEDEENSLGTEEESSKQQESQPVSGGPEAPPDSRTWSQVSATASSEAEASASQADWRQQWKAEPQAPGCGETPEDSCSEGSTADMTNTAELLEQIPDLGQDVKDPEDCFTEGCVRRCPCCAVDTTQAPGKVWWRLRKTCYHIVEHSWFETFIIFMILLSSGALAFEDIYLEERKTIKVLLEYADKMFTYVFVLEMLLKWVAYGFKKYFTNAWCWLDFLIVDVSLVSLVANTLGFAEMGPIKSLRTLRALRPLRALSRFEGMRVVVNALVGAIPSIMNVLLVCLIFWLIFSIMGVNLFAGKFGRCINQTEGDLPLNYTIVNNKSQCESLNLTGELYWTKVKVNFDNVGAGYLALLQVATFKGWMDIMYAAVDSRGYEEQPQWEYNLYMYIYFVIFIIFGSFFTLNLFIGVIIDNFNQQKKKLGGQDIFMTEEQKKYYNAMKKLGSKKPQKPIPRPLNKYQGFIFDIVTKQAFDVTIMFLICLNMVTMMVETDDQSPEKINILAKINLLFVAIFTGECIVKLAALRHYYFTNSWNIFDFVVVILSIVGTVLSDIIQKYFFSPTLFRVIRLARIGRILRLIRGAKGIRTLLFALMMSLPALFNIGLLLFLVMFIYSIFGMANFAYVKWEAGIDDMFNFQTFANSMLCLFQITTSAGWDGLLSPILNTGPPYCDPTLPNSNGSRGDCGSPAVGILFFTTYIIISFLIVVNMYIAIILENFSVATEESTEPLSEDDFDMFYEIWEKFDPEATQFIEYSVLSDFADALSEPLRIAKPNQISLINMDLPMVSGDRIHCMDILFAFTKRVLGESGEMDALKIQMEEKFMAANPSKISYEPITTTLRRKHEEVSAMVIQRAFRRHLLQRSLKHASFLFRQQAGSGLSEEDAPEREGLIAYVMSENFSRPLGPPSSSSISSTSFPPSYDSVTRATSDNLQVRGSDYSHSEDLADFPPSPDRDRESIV
compound,measurement,setting,value
"CC[C@H](C)[C@@H]1NC(=O)[C@@H]2CSSC[C@@H]3NC(=O)[C@H](C(C)C)NC(=O)[C@H](CC(C)C)NC(=O)[C@H](CC(N)=O)NC(=O)[C@@H]4CCCN4C(=O)[C@H](CCCNC(=N)N)NC(=O)[C@H](CSSC[C@H](NC(=O)[C@@H](N)CC(=O)O)C(=O)N[C@@H](CC(C)C)C(=O)NCC(=O)N[C@@H](Cc4ccccc4)C(=O)N[C@@H](CCSC)C(=O)N[C@@H](CCCNC(=N)N)C(=O)N[C@@H](CCCCN)C(=O)N2)NC(=O)[C@H](CSSC[C@@H](C(=O)N[C@@H](CCCCN)C(=O)N[C@@H](Cc2ccc(O)cc2)C(=O)N[C@@H](C)C(=O)N[C@@H](Cc2ccccc2)C(N)=O)NC(=O)[C@H](Cc2c[nH]c4ccccc24)NC(=O)[C@H](CCCCN)NC(=O)[C@H](Cc2cnc[nH]2)NC(=O)[C@H]([C@@H](C)O)NC(=O)[C@H](CCCNC(=N)N)NC(=O)[C@H](CO)NC3=O)NC(=O)[C@H](CCCCN)NC(=O)[C@H](CC(=O)O)NC(=O)[C@H](CC(N)=O)NC(=O)[C@H](CC(=O)O)NC(=O)[C@@H]2CCCN2C1=O [compound 15] (H-DCLGFMRKCIPDNDKCCRPNLVCSRTHKWCKYAF-NH2; disulfide 2-17, 9-23, 16-30)",IC50,"hNav1.7; Table 26, use, […]",330 nM
same,IC50,"hNav1.3; Table 26, use, […]",350 nM
same,IC50,"hNav1.5; Table 26, use, […]",18600 nM
CCCC[C@@H]1NC(=O)[C@H](C)NC(=O)CNC(=O)[C@H](CC(C)C)NC(=O)[C@@H](NC(=O)[C@@H](N)CC(=O)O)CSSC[C@@H]2NC(=O)[C@@H]3CSSC[C@@H](C(=O)N[C@@H](CCCCN)C(=O)N[C@@H](Cc4ccc(O)cc4)C(=O)N[C@H](C(=O)N[C@@H](Cc4ccccc4)C(N)=O)C(C)C)NC(=O)[C@H](Cc4c[nH]c5ccccc45)NC(=O)[C@H](CCCCN)NC(=O)[C@H](Cc4cnc[nH]4)NC(=O)[C@H]([C@@H](C)O)NC(=O)[C@H](CCCNC(=N)N)NC(=O)[C@H](CO)NC(=O)[C@H](CSSC[C@H](NC(=O)[C@H](CCCCN)NC(=O)[C@H](CCCNC(=N)N)NC1=O)C(=O)N[C@@H]([C@@H](C)CC)C(=O)N1CCC[C@H]1C(=O)N[C@@H](CC(=O)O)C(=O)N[C@@H](CC(N)=O)C(=O)N[C@@H](CC(=O)O)C(=O)N[C@@H](CCCCN)C(=O)N3)NC(=O)[C@H](C(C)C)NC(=O)[C@H](CC(C)C)NC(=O)[C@H](CC(N)=O)NC(=O)[C@@H]1CCCN1C(=O)[C@H](CCCNC(=N)N)NC2=O [compound 721],IC50,"hNav1.7; use-dependent block, hNav1.7",150 nM
same,IC50,"hNav1.3; use-dependent block, hNav1.3",410 nM
same,IC50,"hNav1.5; use-dependent block, hNav1.5",45000 nM
"CC[C@H](C)[C@@H]1NC(=O)[C@@H]2CSSC[C@@H]3NC(=O)[C@H](C(C)C)NC(=O)[C@H](CC(C)C)NC(=O)[C@H](CC(N)=O)NC(=O)[C@@H]4CCCN4C(=O)[C@H](CCCNC(=N)N)NC(=O)[C@H](CSSC[C@H](NC(=O)[C@@H](N)CC(=O)O)C(=O)N[C@@H](CC(C)C)C(=O)NCC(=O)N[C@@H](CCc4ccccc4)C(=O)N[C@@H](Cc4ccccc4)C(=O)N[C@@H](CCCNC(=N)N)C(=O)N[C@@H](CCCCN)C(=O)N2)NC(=O)[C@H](CSSC[C@@H](C(=O)N[C@@H](CCCCN)C(=O)N[C@@H](Cc2ccc(O)cc2)C(=O)N[C@H](C(=O)N[C@@H](Cc2ccccc2)C(N)=O)C(C)C)NC(=O)[C@H](Cc2c[nH]c4ccccc24)NC(=O)[C@H](CCCCN)NC(=O)[C@H](Cc2c[nH]cn2)NC(=O)[C@H]([C@@H](C)O)NC(=O)[C@H](CCCNC(=N)N)NC(=O)[C@H](CO)NC3=O)NC(=O)[C@H](CCCCN)NC(=O)[C@H](CC(=O)O)NC(=O)[C@H](CC(N)=O)NC(=O)[C@H](CC(=O)O)NC(=O)[C@@H]2CCCN2C1=O [compound 631] (H-DCLG[hPhe]FRKCIPDNDKCCRPNLVCSRTHKWCKYVF-NH2; disulfide 2-17, 9-23, 16-30)",IC50,"hNav1.7; use-dependent protocol, hNav1.7",19 nM
same,IC50,"hNav1.3; use-dependent protocol, hNav1.3",5 nM
same,IC50,"hNav1.5; use-dependent protocol, hNav1.5",4900 nM
